{"source": "paper PMC7582770", "about": "“Synthesis of “All-Cis” Trihydroxypiperidines from a Carbohydrate-Derived Ketone: Hints for the Design of New β-Gal and GCase Inhibitors” (Molecules, 2020)"}
{"tested_on": "β-mannosidase EC 3.2.1.25", "assay": "Commercial glycosidase screening", "format": "biochemical, snail", "settings": "0.1 mM inhibitor", "source_text": "(§1) A panel of 12 commercial glycosidases (α-L-fucosidase EC 3.2.1.51 from Homo sapiens, α-galactosidase EC 3.2.1.22 from coffee beans, β-galactosidases EC 3.2.1.23 from Escherichia coli and Aspergillus oryzae, α-glucosidases EC 3.2.1.20 from yeast and rice, amyloglucosidase EC 3.2.1.3 from Aspergillus niger, β-glucosidase EC 3.2.1.21 from almonds, α-mannosidase EC 3.2.1.24 from Jack beans, β-mannosidase EC 3.2.1.25 from snail, β-N-acetylglucosaminidases EC 3.2.1.52 from Jack beans and bovine kidney) purchased from Sigma-Aldrich (St. Louis, MO, USA) or Megazyme Ltd. (Bray, Co. Wicklow, Ireland) was screened.\n(§2) The percentage (%) of inhibition towards the corresponding glycosidase was determined in quadruplicate in the presence of 100 μM of the inhibitor on the well. Each enzymatic assay (final volume 0.12 mL) contains 0.01–0.5 units/mL of the enzyme (with previous calibration) and 4.2 mM aqueous solution of the appropriate p-nitrophenyl glycopyranoside (substrate) buffered to the optimal pH of the enzyme. Enzyme and inhibitor were preincubated for 5 min at room temperature, and the reaction started by addition of the substrate. After 20 min of incubation at 37 °C, the reaction was stopped by the addition of 0.1 mL of sodium borate solution (pH 9.8). The p-nitrophenolate formed was measured by visible absorption spectroscopy at 405 nm (Asys Expert 96 spectrophotometer, Biochrom Ltd., Cambridge, England). Under these conditions, the p-nitrophenolate released led to optical densities linear with both reaction time and concentration of the enzyme (for more details, see the Supplementary Materials). The IC50 value (concentration of inhibitor required for 50% inhibition of enzyme activity) was determined from plots of % inhibition vs. different inhibitor concentrations. Each point of the graph is the average of four measures. The standard deviation for each point has been also represented in the graph."}
{"compound": "CCCCCCCCCCCCN[C@H]1CNC[C@@H](O)[C@H]1O", "note": "[compound 10, (3R, 4S, 5S)-3,4-Dihydroxy-5-(Dodecylamino) Piperidine]", "% Inhibition at 0.1 mM, β-mannosidase snail": "- (no inhibition detected)"}
{"compound": "CCCCCCCC[C@]1(O)CNC[C@@H](O)[C@H]1O", "note": "[compound 12, (3S, 4R, 5R)-3,4,5-Trihydroxy-3-Octyl-Piperidine]", "% Inhibition at 0.1 mM, β-mannosidase snail": "- (no inhibition detected)"}
{"compound": "CCCCCCCCCO[C@@H]1CNC[C@@H](O)[C@H]1O", "note": "[compound 21, (3R, 4R, 5R)-4,5-Dihydroxy-3-(Nonyloxy) Piperidine]", "% Inhibition at 0.1 mM, β-mannosidase snail": "- (no inhibition detected)"}
{"target": "T1, human lysosomal β-galactosidase (β-Gal) (Homo sapiens, UniProt P16278)", "T1 construct": "in leukocytes isolated from healthy donors (controls); endogenous in cells; host or cells: human leukocytes from healthy donors, disrupted by sonication (crude homogenate)", "T1 sequence (P16278 29-677)": "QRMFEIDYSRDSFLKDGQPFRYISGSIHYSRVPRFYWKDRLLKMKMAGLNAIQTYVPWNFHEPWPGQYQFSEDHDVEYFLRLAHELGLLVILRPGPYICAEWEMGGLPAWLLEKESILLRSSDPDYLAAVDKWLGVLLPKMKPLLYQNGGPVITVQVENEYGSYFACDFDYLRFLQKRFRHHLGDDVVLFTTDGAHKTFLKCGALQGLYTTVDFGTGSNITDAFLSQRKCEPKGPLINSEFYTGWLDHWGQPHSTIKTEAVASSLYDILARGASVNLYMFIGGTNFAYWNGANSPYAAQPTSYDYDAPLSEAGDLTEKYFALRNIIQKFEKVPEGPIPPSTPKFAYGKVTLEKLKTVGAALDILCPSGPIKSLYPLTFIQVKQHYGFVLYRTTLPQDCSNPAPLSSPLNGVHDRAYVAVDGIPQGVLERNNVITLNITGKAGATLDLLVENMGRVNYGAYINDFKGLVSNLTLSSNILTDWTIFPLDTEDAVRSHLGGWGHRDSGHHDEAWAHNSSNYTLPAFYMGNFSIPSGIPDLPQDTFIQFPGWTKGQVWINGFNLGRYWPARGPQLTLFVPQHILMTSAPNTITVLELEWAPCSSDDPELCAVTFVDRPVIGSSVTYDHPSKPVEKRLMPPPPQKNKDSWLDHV", "assay": "β-Gal inhibition in human leukocyte homogenates", "format": "biochemical", "settings": "compounds 1 mM; human leukocytes extracts", "method": "The new compounds were screened at 1 mM concentration towards β-galactosidase (β-Gal) and β-glucosidase (GCase) in leukocytes isolated from healthy donors (controls). Isolated leukocytes were disrupted by sonication, and a Micro BCA Protein Assay Kit (Sigma–Aldrich, St. Louis, MO, USA) was used to determine the total protein amount for the enzymatic assay, according to the manufacturer’s instructions.\nβ-Gal activity was measured in a flat-bottomed 96-well plate. Azasugar solution (3 μL), 4.29 μg/μL leukocytes homogenate 1:10 (7 μL), and substrate 4-methylumbelliferyl β-D-galactopyranoside (1.47 mM, 20 μL, Sigma–Aldrich) in acetate buffer (0.1 M, pH 4.3) containing NaCl (0.1 M) and sodium azide (0.02%) were incubated at 37 °C for 1 h. The reaction was stopped by addition of sodium carbonate (200 μL; 0.5 M, pH 10.7) containing Triton X-100 (0.0025%), and the fluorescence 4-methylumbelliferone released by β-galactosidase activity was measured in SpectraMax M2 Microplate Reader (λex = 365 nm and λem = 435 nm; Molecular Devices LLC, San Jose, CA, US). Inhibition is given with respect to the control (without azasugar). Data are mean SD (n = 3).", "units": {"inhibition at 1000 µM": "%"}}
{"compound": "CCCCCCCCCO[C@H]1CNC[C@@H](O)[C@H]1O", "note": "[compound 9, (3S, 4R, 5R)-4,5-Dihydroxy-3-(Nonyloxy) Piperidine]", "inhibition at 1000 µM": 22}
{"compound": "CCCCCCCCCCCCN[C@H]1CNC[C@@H](O)[C@H]1O", "note": "[compound 10, (3R, 4S, 5S)-3,4-Dihydroxy-5-(Dodecylamino) Piperidine]", "inhibition at 1000 µM": 0}
{"compound": "CCCCCCCC[C@]1(O)CNC[C@@H](O)[C@H]1O", "note": "[compound 12, (3S, 4R, 5R)-3,4,5-Trihydroxy-3-Octyl-Piperidine]", "inhibition at 1000 µM": 0}
{"compound": "CCCCCCCCCO[C@@H]1CNC[C@@H](O)[C@H]1O", "note": "[compound 21, (3R, 4R, 5R)-4,5-Dihydroxy-3-(Nonyloxy) Piperidine]", "inhibition at 1000 µM": 0}
{"tested_on": "β-N-acetylglucosaminidase EC 3.2.1.52", "assay": "Commercial glycosidase screening", "format": "biochemical, Jack beans", "settings": "0.1 mM inhibitor", "source_text": "as §1, §2"}
{"compound": "CCCCCCCCCCCCN[C@H]1CNC[C@@H](O)[C@H]1O", "note": "[compound 10, (3R, 4S, 5S)-3,4-Dihydroxy-5-(Dodecylamino) Piperidine]", "% Inhibition at 0.1 mM, β-N-acetylglucosaminidase Jack beans": "- (no inhibition detected)"}
{"compound": "CCCCCCCC[C@]1(O)CNC[C@@H](O)[C@H]1O", "note": "[compound 12, (3S, 4R, 5R)-3,4,5-Trihydroxy-3-Octyl-Piperidine]", "% Inhibition at 0.1 mM, β-N-acetylglucosaminidase Jack beans": "- (no inhibition detected)"}
{"compound": "CCCCCCCCCO[C@@H]1CNC[C@@H](O)[C@H]1O", "note": "[compound 21, (3R, 4R, 5R)-4,5-Dihydroxy-3-(Nonyloxy) Piperidine]", "% Inhibition at 0.1 mM, β-N-acetylglucosaminidase Jack beans": "- (no inhibition detected)"}
{"target": "T2, β-galactosidase EC 3.2.1.23 (Escherichia coli, UniProt P00722)", "T2 construct": "purchased Sigma-Aldrich or Megazyme Ltd", "T2 sequence (P00722 2-1024)": "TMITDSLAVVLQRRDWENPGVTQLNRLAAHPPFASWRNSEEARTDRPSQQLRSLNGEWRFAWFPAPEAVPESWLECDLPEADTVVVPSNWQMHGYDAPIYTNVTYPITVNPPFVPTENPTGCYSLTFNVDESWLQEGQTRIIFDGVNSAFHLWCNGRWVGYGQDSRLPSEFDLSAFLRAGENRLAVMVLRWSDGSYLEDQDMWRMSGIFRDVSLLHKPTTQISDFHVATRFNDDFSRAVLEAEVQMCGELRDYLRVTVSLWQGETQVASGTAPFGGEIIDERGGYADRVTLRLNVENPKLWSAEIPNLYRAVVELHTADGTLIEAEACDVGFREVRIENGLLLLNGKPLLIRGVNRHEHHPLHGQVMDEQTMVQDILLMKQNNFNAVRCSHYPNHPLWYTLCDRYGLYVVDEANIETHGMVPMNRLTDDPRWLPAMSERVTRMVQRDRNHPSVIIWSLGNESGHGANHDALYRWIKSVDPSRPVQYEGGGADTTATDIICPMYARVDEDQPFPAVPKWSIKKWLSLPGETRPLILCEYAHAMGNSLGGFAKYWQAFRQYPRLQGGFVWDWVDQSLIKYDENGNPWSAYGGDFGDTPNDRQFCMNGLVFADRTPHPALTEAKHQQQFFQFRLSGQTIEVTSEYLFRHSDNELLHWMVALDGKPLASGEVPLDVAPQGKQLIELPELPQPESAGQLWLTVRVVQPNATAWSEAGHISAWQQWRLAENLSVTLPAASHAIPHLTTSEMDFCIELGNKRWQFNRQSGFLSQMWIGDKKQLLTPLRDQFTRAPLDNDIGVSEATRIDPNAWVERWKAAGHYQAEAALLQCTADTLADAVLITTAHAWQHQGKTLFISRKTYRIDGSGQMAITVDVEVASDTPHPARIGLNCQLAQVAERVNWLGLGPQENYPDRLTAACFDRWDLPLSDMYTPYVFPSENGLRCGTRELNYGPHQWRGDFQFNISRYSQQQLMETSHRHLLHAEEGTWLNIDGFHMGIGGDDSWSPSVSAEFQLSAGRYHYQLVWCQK", "assay": "Commercial glycosidase screening", "format": "biochemical", "settings": "read-out: % Inhibition at 0.1 mM, β-galactosidase Escherichia coli", "source_text": "as §1, §2", "units": {"inhibition at 100 µM": "%"}}
{"compound": "CCCCCCCCCCCCN[C@H]1CNC[C@@H](O)[C@H]1O", "note": "[compound 10, (3R, 4S, 5S)-3,4-Dihydroxy-5-(Dodecylamino) Piperidine]", "inhibition at 100 µM": 0}
{"compound": "CCCCCCCC[C@]1(O)CNC[C@@H](O)[C@H]1O", "note": "[compound 12, (3S, 4R, 5R)-3,4,5-Trihydroxy-3-Octyl-Piperidine]", "inhibition at 100 µM": 0}
{"compound": "CCCCCCCCCO[C@@H]1CNC[C@@H](O)[C@H]1O", "note": "[compound 21, (3R, 4R, 5R)-4,5-Dihydroxy-3-(Nonyloxy) Piperidine]", "inhibition at 100 µM": 0}
{"target": "T3, α-galactosidase EC 3.2.1.22 (Coffea arabica, UniProt Q42656)", "T3 construct": "purchased Sigma-Aldrich or Megazyme Ltd", "T3 sequence (Q42656 16-378)": "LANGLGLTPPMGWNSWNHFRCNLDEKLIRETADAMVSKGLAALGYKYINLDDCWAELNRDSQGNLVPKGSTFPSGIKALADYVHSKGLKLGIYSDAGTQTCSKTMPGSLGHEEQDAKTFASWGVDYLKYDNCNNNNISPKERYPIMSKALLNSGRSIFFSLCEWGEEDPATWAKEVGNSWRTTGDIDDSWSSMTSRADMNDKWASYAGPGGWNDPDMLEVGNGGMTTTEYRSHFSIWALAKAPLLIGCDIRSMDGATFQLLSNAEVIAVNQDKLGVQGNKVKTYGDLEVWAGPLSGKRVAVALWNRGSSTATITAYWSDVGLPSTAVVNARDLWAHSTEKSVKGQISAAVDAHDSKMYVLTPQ", "assay": "Commercial glycosidase screening", "format": "biochemical", "settings": "0.1 mM inhibitor; read-out: % Inhibition at 0.1 mM, α-galactosidase coffee beans", "source_text": "as §1, §2", "units": {"inhibition at 100 µM": "%"}}
{"compound": "CCCCCCCCCCCCN[C@H]1CNC[C@@H](O)[C@H]1O", "note": "[compound 10, (3R, 4S, 5S)-3,4-Dihydroxy-5-(Dodecylamino) Piperidine]", "inhibition at 100 µM": 0}
{"compound": "CCCCCCCC[C@]1(O)CNC[C@@H](O)[C@H]1O", "note": "[compound 12, (3S, 4R, 5R)-3,4,5-Trihydroxy-3-Octyl-Piperidine]", "inhibition at 100 µM": 0}
{"compound": "CCCCCCCCCO[C@@H]1CNC[C@@H](O)[C@H]1O", "note": "[compound 21, (3R, 4R, 5R)-4,5-Dihydroxy-3-(Nonyloxy) Piperidine]", "inhibition at 100 µM": 0}
{"target": "T4, β-galactosidase EC 3.2.1.23 (Aspergillus oryzae, UniProt Q2UCU3)", "T4 construct": "purchased Sigma-Aldrich or Megazyme Ltd", "T4 sequence (Q2UCU3 19-1005)": "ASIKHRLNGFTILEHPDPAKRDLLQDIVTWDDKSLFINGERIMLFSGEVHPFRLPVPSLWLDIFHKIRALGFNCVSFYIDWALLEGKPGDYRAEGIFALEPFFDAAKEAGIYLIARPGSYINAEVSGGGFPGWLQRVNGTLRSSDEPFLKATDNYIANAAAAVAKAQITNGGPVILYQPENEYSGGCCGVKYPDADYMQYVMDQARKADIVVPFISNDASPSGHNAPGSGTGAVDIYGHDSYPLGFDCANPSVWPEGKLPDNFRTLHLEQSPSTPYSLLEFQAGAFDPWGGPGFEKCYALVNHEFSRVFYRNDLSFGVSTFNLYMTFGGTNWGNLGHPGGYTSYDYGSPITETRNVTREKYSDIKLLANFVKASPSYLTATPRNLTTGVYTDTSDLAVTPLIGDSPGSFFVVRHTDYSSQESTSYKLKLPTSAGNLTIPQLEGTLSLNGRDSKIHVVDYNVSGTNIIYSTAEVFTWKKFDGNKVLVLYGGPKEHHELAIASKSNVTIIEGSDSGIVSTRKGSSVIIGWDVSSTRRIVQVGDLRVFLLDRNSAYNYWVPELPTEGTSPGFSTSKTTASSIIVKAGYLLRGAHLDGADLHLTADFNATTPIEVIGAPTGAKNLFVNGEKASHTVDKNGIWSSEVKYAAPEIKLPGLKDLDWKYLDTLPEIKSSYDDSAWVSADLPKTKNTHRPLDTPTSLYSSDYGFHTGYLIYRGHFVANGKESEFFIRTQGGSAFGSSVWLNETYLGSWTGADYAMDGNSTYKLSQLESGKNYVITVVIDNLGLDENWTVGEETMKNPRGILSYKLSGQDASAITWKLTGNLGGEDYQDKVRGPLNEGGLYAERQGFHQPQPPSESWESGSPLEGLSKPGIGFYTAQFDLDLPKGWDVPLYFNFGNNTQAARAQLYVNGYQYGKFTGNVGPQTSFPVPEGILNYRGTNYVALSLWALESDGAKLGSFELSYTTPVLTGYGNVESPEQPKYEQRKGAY", "assay": "Commercial glycosidase screening", "format": "biochemical", "settings": "0.1 mM inhibitor", "source_text": "as §1, §2", "units": {"inhibition at 100 µM": "%"}}
{"compound": "CCCCCCCCCCCCN[C@H]1CNC[C@@H](O)[C@H]1O", "note": "[compound 10, (3R, 4S, 5S)-3,4-Dihydroxy-5-(Dodecylamino) Piperidine]", "inhibition at 100 µM": 0}
{"compound": "CCCCCCCC[C@]1(O)CNC[C@@H](O)[C@H]1O", "note": "[compound 12, (3S, 4R, 5R)-3,4,5-Trihydroxy-3-Octyl-Piperidine]", "inhibition at 100 µM": 0}
{"compound": "CCCCCCCCCO[C@@H]1CNC[C@@H](O)[C@H]1O", "note": "[compound 21, (3R, 4R, 5R)-4,5-Dihydroxy-3-(Nonyloxy) Piperidine]", "inhibition at 100 µM": 0}
{"tested_on": "α-glucosidase EC 3.2.1.20", "assay": "Commercial glycosidase screening", "format": "biochemical, rice", "settings": "0.1 mM inhibitor", "source_text": "as §1, §2"}
{"compound": "CCCCCCCCCCCCN[C@H]1CNC[C@@H](O)[C@H]1O", "note": "[compound 10, (3R, 4S, 5S)-3,4-Dihydroxy-5-(Dodecylamino) Piperidine]", "% Inhibition at 0.1 mM, α-glucosidase rice": "- (no inhibition detected)"}
{"compound": "CCCCCCCC[C@]1(O)CNC[C@@H](O)[C@H]1O", "note": "[compound 12, (3S, 4R, 5R)-3,4,5-Trihydroxy-3-Octyl-Piperidine]", "% Inhibition at 0.1 mM, α-glucosidase rice": "- (no inhibition detected)"}
{"compound": "CCCCCCCCCO[C@@H]1CNC[C@@H](O)[C@H]1O", "note": "[compound 21, (3R, 4R, 5R)-4,5-Dihydroxy-3-(Nonyloxy) Piperidine]", "% Inhibition at 0.1 mM, α-glucosidase rice": "- (no inhibition detected)"}
